Test results from PubChem BioAssay AID2060509 (Molecular Pharmacology Branch, DTP, NCI, 2025).

System: 485176-168-R4-J1-PDC spheroids with HUVEC/MSC, viability
Assay: Anticancer human tumor 485176-168-R4-J1-PDC patient-derived pancreatic adenocarcinoma cell line growth inhibition [GQUAD]
Details: for IC50: curve of first compound; for viability, T/C: stronger effect = lower value
In short: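 Tumor cells were grown as complex spheroids with HUVEC endothelial cells and mesenchymal stem cells as stroma. G-quadruplex stabilizers were combined with targeted agents over half-log dilutions from near the clinical Cmax, or from 10 microM.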

[1] = second compound 0.0316 µM, first compound 0.0316 µM
[2] = second compound 0.0316 µM, first compound 0.1 µM
[3] = second compound 0.0316 µM, first compound 0.316 µM
[4] = second compound 0.0316 µM, first compound 1 µM
[5] = second compound 0.0316 µM, first compound 3.16 µM
[6] = second compound 0.0316 µM, first compound 10 µM
[7] = second compound 0.1 µM, first compound 0.0316 µM
[8] = second compound 0.1 µM, first compound 0.1 µM
[9] = second compound 0.1 µM, first compound 0.316 µM
[10] = second compound 0.1 µM, first compound 1 µM
[11] = second compound 0.1 µM, first compound 3.16 µM
[12] = second compound 0.1 µM, first compound 10 µM
[13] = second compound 0.316 µM, first compound 0.0316 µM
[14] = second compound 0.316 µM, first compound 0.1 µM
[15] = second compound 0.316 µM, first compound 0.316 µM
[16] = second compound 0.316 µM, first compound 1 µM
[17] = second compound 0.316 µM, first compound 3.16 µM
[18] = second compound 0.316 µM, first compound 10 µM
[19] = second compound 1 µM, first compound 0.0316 µM
[20] = second compound 1 µM, first compound 0.1 µM
[21] = second compound 1 µM, first compound 0.316 µM
[22] = second compound 1 µM, first compound 1 µM
[23] = second compound 1 µM, first compound 3.16 µM
[24] = second compound 1 µM, first compound 10 µM
[25] = second compound 3.16 µM, first compound 0.0316 µM
[26] = second compound 3.16 µM, first compound 0.1 µM
[27] = second compound 3.16 µM, first compound 0.316 µM
[28] = second compound 3.16 µM, first compound 1 µM
[29] = second compound 3.16 µM, first compound 3.16 µM
[30] = second compound 3.16 µM, first compound 10 µM
[31] = second compound 10 µM, first compound 0.0316 µM
[32] = second compound 10 µM, first compound 0.1 µM
[33] = second compound 10 µM, first compound 0.316 µM
[34] = second compound 10 µM, first compound 1 µM
[35] = second compound 10 µM, first compound 3.16 µM
[36] = second compound 10 µM, first compound 10 µM
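Note: spheroids exposed to compounds for seven days before readout.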
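Throughout, for viability, T/C: percent viability relative to DMSO vehicle control wells as 100%.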

## CC(C)(O)C1CCC(Nc2ccc3ncc(-c4cccc(C(F)(F)F)c4)n3n2)CC1 (stereo not drawn) + Cc1cnc(CNC(=O)c2c(=O)c3ccc(N4CCCN(C)CC4)nc3n3c2sc2ccccc23)cn1
Second compound 0.0316 µM
  IC50: > 10000 nM
Second compound 0.1 µM
  IC50: 4380 nM
Second compound 0.316 µM
  IC50: 1370 nM
Second compound 1 µM
  IC50: 371 nM
Second compound 3.16 µM
  IC50: 39.9 nM
Second compound 10 µM
  IC50: < 31.6 nM
[1]
  viability, T/C: 94.1%
[2]
  viability, T/C: 81.3%
[3]
  viability, T/C: 97.5%
[4]
  viability, T/C: 67%
[5]
  viability, T/C: 49.7%
[6]
  viability, T/C: 51.6%
[7]
  viability, T/C: 64.5%
[8]
  viability, T/C: 71.7%
[9]
  viability, T/C: 57.6%
[10]
  viability, T/C: 65.8%
[11]
  viability, T/C: 47.2%
[12]
  viability, T/C: 44.8%
[13]
  viability, T/C: 57.3%
[14]
  viability, T/C: 55.1%
[15]
  viability, T/C: 58.9%
[16]
  viability, T/C: 54.1%
[17]
  viability, T/C: 38.4%
[18]
  viability, T/C: 39.7%
[19]
  viability, T/C: 49.2%
[20]
  viability, T/C: 48.9%
[21]
  viability, T/C: 54%
[22]
  viability, T/C: 45.5%
[23]
  viability, T/C: 31.4%
[24]
  viability, T/C: 36.2%
[25]
  viability, T/C: 52.5%
[26]
  viability, T/C: 45%
[27]
  viability, T/C: 43.3%
[28]
  viability, T/C: 42.8%
[29]
  viability, T/C: 25.2%
[30]
  viability, T/C: 15.8%
[31]
  viability, T/C: 43.4%
[32]
  viability, T/C: 38.8%
[33]
  viability, T/C: 41.6%
[34]
  viability, T/C: 37.9%
[35]
  viability, T/C: 0.55%
[36]
  viability, T/C: 0.23%

## Cc1[nH]c2ccccc2c1CCNCc1ccc(/C=C/C(=O)NO)cc1 + CN(C)c1ccc(Nc2c3ccc(NC(=O)CCN4CCCC4)cc3nc3cc(NC(=O)CCN4CCCC4)ccc23)cc1
Second compound 0.0316 µM
  IC50: 116 nM
Second compound 0.1 µM
  IC50: 132 nM
Second compound 0.316 µM
  IC50: 126 nM
Second compound 1 µM
  IC50: 136 nM
Second compound 3.16 µM
  IC50: 88.3 nM
Second compound 10 µM
  IC50: 120 nM
Second compound 0.0316 µM, first compound 0.000999 µM
  viability, T/C: 102%
Second compound 0.0316 µM, first compound 0.00316 µM
  viability, T/C: 89.9%
Second compound 0.0316 µM, first compound 0.00999 µM
  viability, T/C: 82.7%
[1]
  viability, T/C: 69.4%
Second compound 0.0316 µM, first compound 0.0999 µM
  viability, T/C: 64.6%
[3]
  viability, T/C: 12.9%
Second compound 0.1 µM, first compound 0.000999 µM
  viability, T/C: 103%
Second compound 0.1 µM, first compound 0.00316 µM
  viability, T/C: 87.5%
Second compound 0.1 µM, first compound 0.00999 µM
  viability, T/C: 89.2%
[7]
  viability, T/C: 86.1%
Second compound 0.1 µM, first compound 0.0999 µM
  viability, T/C: 61.9%
[9]
  viability, T/C: 12.1%
Second compound 0.316 µM, first compound 0.000999 µM
  viability, T/C: 80.1%
Second compound 0.316 µM, first compound 0.00316 µM
  viability, T/C: 96.7%
Second compound 0.316 µM, first compound 0.00999 µM
  viability, T/C: 82.9%
[13]
  viability, T/C: 82%
Second compound 0.316 µM, first compound 0.0999 µM
  viability, T/C: 59.4%
[15]
  viability, T/C: 11.8%
Second compound 1 µM, first compound 0.000999 µM
  viability, T/C: 97.3%
Second compound 1 µM, first compound 0.00316 µM
  viability, T/C: 96.7%
Second compound 1 µM, first compound 0.00999 µM
  viability, T/C: 83%
[19]
  viability, T/C: 64.2%
Second compound 1 µM, first compound 0.0999 µM
  viability, T/C: 76.5%
[21]
  viability, T/C: 10%
Second compound 3.16 µM, first compound 0.000999 µM
  viability, T/C: 113%
Second compound 3.16 µM, first compound 0.00316 µM
  viability, T/C: 97.9%
Second compound 3.16 µM, first compound 0.00999 µM
  viability, T/C: 86%
[25]
  viability, T/C: 74.5%
Second compound 3.16 µM, first compound 0.0999 µM
  viability, T/C: 47.9%
[27]
  viability, T/C: 14.5%
Second compound 10 µM, first compound 0.000999 µM
  viability, T/C: 104%
Second compound 10 µM, first compound 0.00316 µM
  viability, T/C: 83.5%
Second compound 10 µM, first compound 0.00999 µM
  viability, T/C: 69.3%
[31]
  viability, T/C: 90.7%
Second compound 10 µM, first compound 0.0999 µM
  viability, T/C: 58.3%
[33]
  viability, T/C: 5.87%

## Nc1ccn(C2OC(CO)C(O)C2(F)F)c(=O)n1 (stereo not drawn) + CN(C)c1ccc(Nc2c3ccc(NC(=O)CCN4CCCC4)cc3nc3cc(NC(=O)CCN4CCCC4)ccc23)cc1
Second compound 0.0316 µM
  IC50: 49.1 nM
Second compound 0.1 µM
  IC50: 45.9 nM
Second compound 0.316 µM
  IC50: 43.6 nM
Second compound 1 µM
  IC50: 61.2 nM
Second compound 3.16 µM
  IC50: 55.9 nM
Second compound 10 µM
  IC50: 41.3 nM
[1]
  viability, T/C: 70.3%
[2]
  viability, T/C: 17.4%
[3]
  viability, T/C: 10.6%
[4]
  viability, T/C: 9.81%
[5]
  viability, T/C: 10.5%
[6]
  viability, T/C: 12.1%
[7]
  viability, T/C: 63.7%
[8]
  viability, T/C: 22%
[9]
  viability, T/C: 10.5%
[10]
  viability, T/C: 10.5%
[11]
  viability, T/C: 10.3%
[12]
  viability, T/C: 10.9%
[13]
  viability, T/C: 62.1%
[14]
  viability, T/C: 19.4%
[15]
  viability, T/C: 10.4%
[16]
  viability, T/C: 10.9%
[17]
  viability, T/C: 10.5%
[18]
  viability, T/C: 13.7%
[19]
  viability, T/C: 90.1%
[20]
  viability, T/C: 20.1%
[21]
  viability, T/C: 10.6%
[22]
  viability, T/C: 12.5%
[23]
  viability, T/C: 11.6%
[24]
  viability, T/C: 9.65%
[25]
  viability, T/C: 81.3%
[26]
  viability, T/C: 18.1%
[27]
  viability, T/C: 10.6%
[28]
  viability, T/C: 11.5%
[29]
  viability, T/C: 10%
[30]
  viability, T/C: 11.9%
[31]
  viability, T/C: 58%
[32]
  viability, T/C: 23.7%
[33]
  viability, T/C: 10.4%
[34]
  viability, T/C: 10.9%
[35]
  viability, T/C: 11.1%
[36]
  viability, T/C: 11.2%

## C#Cc1c(F)ccc2cc(O)cc(-c3ncc4c(N5CC6CCC(C5)N6)nc(OCC56CCCN5CC(F)C6)nc4c3F)c12 (stereo not drawn) + CN(C)c1ccc(Nc2c3ccc(NC(=O)CCN4CCCC4)cc3nc3cc(NC(=O)CCN4CCCC4)ccc23)cc1
Second compound 0.0316 µM
  IC50: > 10000 nM
Second compound 0.1 µM
  IC50: > 10000 nM
Second compound 0.316 µM
  IC50: > 10000 nM
Second compound 1 µM
  IC50: > 10000 nM
Second compound 3.16 µM
  IC50: > 10000 nM
Second compound 10 µM
  IC50: > 10000 nM
[1]
  viability, T/C: 119%
[2]
  viability, T/C: 106%
[3]
  viability, T/C: 103%
[4]
  viability, T/C: 106%
[5]
  viability, T/C: 95.6%
[6]
  viability, T/C: 98.2%
[7]
  viability, T/C: 112%
[8]
  viability, T/C: 99.5%
[9]
  viability, T/C: 91.9%
[10]
  viability, T/C: 97.9%
[11]
  viability, T/C: 120%
[12]
  viability, T/C: 116%
[13]
  viability, T/C: 97.4%
[14]
  viability, T/C: 81.8%
[15]
  viability, T/C: 105%
[16]
  viability, T/C: 102%
[17]
  viability, T/C: 95.5%
[18]
  viability, T/C: 85.5%
[19]
  viability, T/C: 91.6%
[20]
  viability, T/C: 90.8%
[21]
  viability, T/C: 99.3%
[22]
  viability, T/C: 111%
[23]
  viability, T/C: 94.6%
[24]
  viability, T/C: 94.3%
[25]
  viability, T/C: 113%
[26]
  viability, T/C: 96.2%
[27]
  viability, T/C: 103%
[28]
  viability, T/C: 94.4%
[29]
  viability, T/C: 99.4%
[30]
  viability, T/C: 78.2%
[31]
  viability, T/C: 89.8%
[32]
  viability, T/C: 104%
[33]
  viability, T/C: 82.5%
[34]
  viability, T/C: 91.9%
[35]
  viability, T/C: 70.8%
[36]
  viability, T/C: 54.3%
